From US10865188B2, “Dibenzo azepine compounds and their use in the treatment of otic diseases and disorders” (Pipeline Therapeutics, Inc., priority 2015, dated 2020) come the findings set out here.

The structures appear in SMILES notation.

The test has as its system HES1. Kind of test: Human neural stem cell assay, Hes1 gene expression (real-time PCR). It counts as cell-based. As to conditions: human neural stem cells, 7 point CRC, read-out: hNSC HES1 IC50. As for the experimental part: Neural stem cells (NSC) were derived from embryonic stem cells using a published protocol (Yuan et al., Mar. 2, 2011, PLoS ONE, 6(3):e17540). Cells were sorted and characterized at passage 3 and were expanded. Cells were then frozen at passage 5. Cells were maintained in NSC media (DMEM/F12, N2 (1×), B27(1×) (Invitrogen), and Pen/Strep (1×) (Life Technologies) with 20 ng/ml bFGF (BD Bioscience/Corning)). On day 1, cells were plated in 96 well plates that have been previously coated with poly-ornithin and laminin, 60,000 cells/well in 100 μl of media. On day 2, spent media was removed, and 180 μl of fresh media was added to the cells. Later that same day (day 2), cells were treated with 20 μl of NSC media containing test compounds (7 point CRC). On day 3, spent media was removed and 140 μl of RLT/bME was added to the cells. RNA was extracted using the QiaCube (Qiagen®, Germantown, Md., USA) using the total RNA extraction+DNAse protocol. RNA was then reverse-transcribed to cDNA using iScript (Bio-Rad, Hercules, Calif., USA). cDNA was then used for real-time PCR analysis using iTaq Sybergreen (BioRad). Expression of Atoh1, Hes5, Hes1, Myosin7a genes was evaluated using CFX96 or CFX384 (Bio-Rad). HPRT1 was used as a reference gene. Analysis was done using Microsoft® Excel® and CBIS (ChemInnovation Software, Inc., San Diego, Calif., USA). […]

By IC50 is commonly meant the point on the concentration scale where inhibition reaches its midpoint. In the case of `C[C@H](OC(=O)NCC(F)(F)C(F)(F)F)C(=O)N[C@@H]1C(=O)Nc2ccccc2-c2ccccc21` [Compound I, (2,2,3,3,3-pentafluoropropyl)-carbamic acid (S)-1-((S)-6-oxo-6,7-dihydro-5H-dibenzo[b,d]azepin-7-ylcarbamoyl) ethyl ester], the IC50 stood at 0.242 µM.
